Experiments:
[1] = system: sucking piglets with yellow watery diarrhea or infective gastroenteritis; assay: Treatment of piglet diarrhea at ages 1-5 days with formulations; type: in vivo
From the text: Diarrhea is a common disorder with sucking or weaning piglets. Viral or bacterial infections are common causes of piglet diarrhea. Piglets with viral diarrhea usually have yellow watery stools and piglets with bacterial diarrhea usually have gray stools. Sometimes, yellow diarrhea is accompanied with vomiting showing the characteristic of infective gastroenteritis. Often, piglet diarrhea or infective gastroenteritis is caused by mixed infection of viruses and bacteria. Piglets younger than one week could have a serious viral diarrhea or infective gastroenteritis with high death rates from about 70% to over 90%.
The formulations of 1.2, 2.2, 3.2 and 4.2 as prepared above in 6.1 were used for the treatment of diarrhea piglets at ages 1-5 days. […] In addition, combination of formula 1.2 and Enrofloxacin was also used for the treatment of piglet diarrhea.
Seven groups of sucking piglets with yellow watery diarrhea or infective gastroenteritis at ages of 1-5 days were treated once per day via oral administration or muscular injection with: 1) 1 ml/kg of body weight of ORS alone (control group, n=50); 2) Enrofloxacin according to manufacture's instruction (antibiotic control, n=69); 3) 1 ml/kg of body weight of the formula-1.2 (n=49); 4) 1 ml/kg of body weight of the formula-2.2 (n=82); 5) 1 ml/kg of body weight of the formula-3.2 (n=55); 6) 1 ml/kg of body weight of the […]; and 7) 1 ml/kg of body weight of the formula-1.2 plus Enrofloxacin (n=32).

rhesus rotavirus (RRV) = assay: Treatment of rotavirus infection of mouse pups with formulations; conditions: RRV-infected mouse pups
[2] = system: sucking or weaning piglets with various diarrheas or infective gastroenteritis; assay: Treatment of piglet diarrhea at ages 5-40 days with formula-2.2; type: in vivo
Protocol: The formula-2.2 as prepared above in 6.1 was used for the treatment of diarrhea piglets at ages 5-40 days.
Two groups of sucking or weaning piglets with various diarrheas or infective gastroenteritis at ages of 5-40 days were treated once per day via oral administration with: 1) Enrofloxacin according to manufacture's instruction (antibiotic group, n=139); and 2) 1 ml/kg of body weight of the formula-2.2 (n=262).

[3] = system: respiratory infections accompanied with the respiratory syndrome (asthma); assay: Treatment of respiratory infections or disorders of piglets; type: in vivo
From the text: The formulations of 1.2 and 3.2 as prepared above in 6.1 were used for the prevention and treatment of respiratory infections or disorders of piglets. The ORS alone and a commercially available antibiotic product, Timicosin were used as controls. In addition, combination of formula 3.2 and Timicosin was used for the treatment of respiratory infections or disorders of piglets.
Weaning piglets (10˜15 kg, aged 5-7 weeks) suffered from respiratory infections accompanied with the respiratory syndrome characterized by asthma-like symptoms (difficulty with breath). The sick piglets were treated separately once a day via oral administration or intramuscular injection with 1) Tilmicosin according to manufacture's instructions (n=39); 2) 1 ml/kg of body weight of the formula-3.2 (n=36); and 3) Tilmicosin and 1 ml/kg of body weight of the formula-3.2 (n=41).

[4] = system: dogs suffered from respiratory infections; assay: Treatment of respiratory infections of dogs; type: in vivo
Protocol: The formula-3.2 as prepared above in 6.1 was used via oral administration for the prevention or treatment of respiratory infections or disorders of dogs.
Two groups of dogs suffered from respiratory infections with the symptoms of runny nose, coughing, chills, fever and weakness/fatigue (etc.) were treated once per day via oral administration or intramuscular injection with: 1) Tulathromycin according to manufacture's instruction (antibiotic group, n=6); 2) 1.5 ml/kg of body weight of the formula-3.2 (n =6); and 3) Tulathromycin and 1.5 ml/kg of body weight of the formula-3.2 (n=9).

[5] = system: influenza virus of A/PR/8/34(H1N1); type: in vivo, mouse
[6] = system: dogs suffered from acute diarrhea; assay: Treatment of diarrhea of dogs with formula-2.2; type: in vivo
Protocol: Two groups of dogs suffered from acute diarrhea with the symptoms of vomiting, depression, dehydration, listlessness, an increased frequency of diarrhea were treated once per day via oral administration or intramuscular injection with: 1) Cephradine according to manufacture's instruction (antibiotic group, n=15); and 2) 1.5 ml/kg of body weight of the formula-2.2 (n=10). Eight out ten (8/10, 80%) of the dogs stopped diarrhea after one dose of the treatment with formula-2.2.

In the case of `CCN1CCN(c2cc3c(cc2F)c(=O)c(C(=O)O)cn3C2CC2)CC1` [Enrofloxacin], the “No death (number of piglets)” value ([1]; diarrhea piglets aged 1-5 days) is reported as 21, the “OR(risk) of death” value ([1]; diarrhea piglets aged 1-5 days) is reported as 0.19 and the “Rate (%) death rate” value ([1]; diarrhea piglets aged 1-5 days) is reported as 69.6%. For the same molecule, the “Death (number of piglets)” value ([1]; diarrhea piglets aged 1-5 days, once per day) was 48, the “day after treatment at which majority of piglets stopped diarrhea” value ([1]; one dose treatment every day) was 4 to 5 days and the “OR(effect)” value (rhesus rotavirus (RRV)) was 0.06. The “OR(risk) of death” value (rhesus rotavirus (RRV)) was 0.76, the duration of diarrhea (rhesus rotavirus (RRV)) was 3 to 4 days and the “outcome in words (diarrhea severity, death rate, efficacy)” value (rhesus rotavirus (RRV)) was “serious”. The “Not effect (number of pups)” value (rhesus rotavirus (RRV); 50 μl oral once per day) was 48, the “Effect (number of pups)” value (rhesus rotavirus (RRV); 50 μl oral once per day, […]) was 3 and the “Death (number of pups)” value (rhesus rotavirus (RRV); kept 3 weeks) was 12. For the same molecule, the “Death Rate(%)” value (rhesus rotavirus (RRV); kept 3 weeks) was 23.5%, the “Not died (number of pups)” value (rhesus rotavirus (RRV); kept 3 weeks) was 39 and the “Rate(%) of effect” value (rhesus rotavirus (RRV); […]) was 5.88%. The “day at which majority of piglets stopped diarrhea” value ([2]; after 4-5 dose treatment (one dose every day)) was 4 to 5 days, the “Later Rec (recovered after 48 hours), number of piglets” value ([2]; diarrhea piglets aged 5-40 days) was 136 and the “Early Rec (recovered within 48 hours), number of piglets” value ([2]; diarrhea piglets aged 5-40 days, oral once per day) was 3. The OR ([2]; early recovery) was 0.001 and the “Rate (%) of early recovery” value ([2]; recovered within 48 hours) was 2.16%.
In the case of `CC[C@H]1OC(=O)C[C@@H](O)[C@H](C)[C@@H](O[C@@H]2O[C@H](C)[C@@H](O)[C@H](N(C)C)[C@H]2O)[C@@H](CCN2C[C@H](C)C[C@H](C)C2)C[C@@H](C)C(=O)/C=C/C(C)=C/[C@@H]1CO[C@@H]1O[C@H](C)[C@@H](O)[C@@H](OC)[C@H]1OC` [Tilmicosin], the “doses needed for getting recovered” value ([3]; in vivo) is reported as 4-5 doses, the “Odds Ratio of death” value ([3]; piglets with respiratory syndrome) is reported as 3.63 and the “Rate (%) death” value ([3]; weaning piglets with respiratory syndrome (asthma)) is reported as 28.2%. For the same molecule, the “Death (number of piglets)” value ([3]; weaning piglets with respiratory syndrome (asthma), once a day) was 11.
`CCCNC[C@]1(O)[C@H](C)O[C@@H](O[C@H]2[C@H](C)[C@@H](O[C@@H]3O[C@H](C)C[C@H](N(C)C)[C@H]3O)[C@](C)(O)C[C@@H](C)CN[C@H](C)[C@@H](O)[C@](C)(O)[C@@H](CC)OC(=O)[C@@H]2C)C[C@@]1(C)OC` [Tulathromycin] was tested, and the “doses needed for getting recovered” value ([4]; dog, in vivo) was 4-7 doses, the “Later Rec, number of dogs” value ([4]; dogs with respiratory infections) was 5 and the “Early Rec (recovered within 48-72 hours), number of dogs” value ([4]; dogs with respiratory infections, once per day) was 1. The OR ([4]; early recovery) was 0.04 and the “Rate (%) of early recovery” value ([4]; recovered within 48-72 hours) was 16.7%.
In the case of `CCOC(=O)C1=C[C@@H](OC(CC)CC)[C@H](NC(C)=O)[C@@H](N)C1` [Tamiflu], the “Odds Ratio of death” value ([5]; influenza infection of mice) is reported as 0.36, the “Death (number of mice)” value ([5]; mouse, in vivo, ip) is reported as 21 and the “Rate (%) death rate” value ([5]; mouse, in vivo, ip) is reported as 70%.
With `CC1=C(C(=O)O)N2C(=O)[C@@H](NC(=O)[C@H](N)C3=CCC=CC3)[C@H]2SC1` [Cephradine] the “Later Rec (recovered after 24 hours), number of dogs” value ([6]; dogs with acute diarrhea) was 14, the “Early Rec (recovered within 24 hours), number of dogs” value ([6]; dogs with acute diarrhea, once per day) was 1 and the OR ([6]; early recovery) was 0.02. For the same molecule, the “Rate (%) of early recovery” value ([6]; recovered within 24 hours) was 6.67%.
